Where “and” joins values, the source holds several entries; their conditions need not be identical. Equal values may be shown once. Entries after “also recorded” stand apart in the source; their conditions may differ. Read-outs that look alike come from different tables or passages of the source.
What was measured:
Paracolobactrum arizonae = assay: In vivo mouse protection test; set-up: species or system white Swiss mice; settings: s.c. × two doses
Text: (§1) Methods: The method employed in this characterization is as follows: Female white Swiss mice, average weight 20-23 grams, were infected intraperitoneally with 3-20 times the number of organisms calculated to be lethal for 50% of the infected control animals (3-20 LD50 doses). At the time of infection and again six hours later, therapy was given by the designated route. Controls of the virulence of the culture and the toxicity of the antibiotic for uninfected mice were included in the tests. Seven days after infection the test was considered complete and the amount of the antibiotic (I) that would be required to protect 50% of the infected and treated animals was calculated by the method of Knudsen and Curtis; J. Amer. Stat. Assoc. Vol. 42: page 282 (1947).
(§2) The method employed in these studies is the same as described above with regard to the in vivo characterization of 810A. The results of these tests are described below in Table XIb:
(§3) Administration was by subcutaneous injection. At the completion of the test period, usually seven days after administration, the amount of product required to protect 50% of the mice (ED50) from this otherwise fatal injection was calculated: […]

Klebsiella pneumoniae AD = assay: In vivo mouse protection test; set-up: species or system white Swiss mice; settings: s.c. × two doses
Text: as §1, §2, §3

Pasteurella multocida = assay: In vivo mouse protection test; set-up: species or system white Swiss mice; settings: s.c. × two doses
Text: as §1, §2, §3

Proteus morganii 3202 = assay: In vivo mouse protection test; set-up: species or system white Swiss mice; settings: s.c. × two doses
Text: as §1, §2, §3

Klebsiella pneumoniae B = assay: In vivo mouse protection test; set-up: species or system white Swiss mice; settings: s.c. × two doses
Text: as §1, §2, §3

Aerobacter aerogenes = assay: In vivo mouse protection test; set-up: species or system white Swiss mice; settings: s.c. × two doses
Text: as §1, §2, §3

[1] = tested on: Salmonella schottmuelleri; assay: In vivo mouse protection test; set-up: species or system white Swiss mice; settings: s.c. × two doses
Text: as §1, §2, §3

Proteus mirabilis = assay: In vivo mouse protection test; set-up: species or system white Swiss mice; settings: s.c. × two doses
Text: as §1, §2, §3

[2] = tested on: Diplococcus pneumoniae 2400; assay: In vivo mouse protection test; set-up: species or system white Swiss mice; settings: s.c. × two doses
Text: as §1, §2, §3

Proteus vulgaris = assay: In vivo mouse protection test; set-up: species or system white Swiss mice; settings: s.c. × two doses
Text: as §1, §2, §3

Salmonella typhosa = assay: In vivo mouse protection test; set-up: species or system white Swiss mice; settings: s.c. × two doses
Text: as §1, §2, §3

Escherichia coli = assay: In vivo mouse protection test; set-up: species or system white Swiss mice; settings: s.c. × two doses
Text: as §1, §2, §3

Escherichia coli 236 = assay: Bacterial inactivation; settings: four hours; B. subtilis (MB-964); 240 min
[3] = Isoelectric point and pH stability; format: physicochemical
[4] = tested on: gram-negative and gram-positive bacteria; assay: Antibacterial activity (general statements); format: cell-based
cephalosporinases = assay: Resistance to cephalosporinases; format: biochemical
Vibrio percolans MB-1272 = assay: Disc-plate assay using Vibrio percolans; settings: broth
[5] = tested on: degradative bacteria / enzymatic degradation; assay: Resistance to enzymatic degradation / bacterial inactivation (general statements); format: biochemical
Text: Bacterial Inactivation with 810A: An in vitro study was designed to determine the resistance of Antibiotic 810A, to bacterial inactivation as compared with cephalosporin C, cephaloridine and cephalothin.

[6] = tested on: Alcaligenes viscosus (MB-12); assay: Bacterial inactivation, washed bacterial cells; settings: 4 hour incubation; assayed on B. subtilis (MB-964) plates
Proteus morganii 356 [7] = settings: washed bacterial cells, 4 h, pH 7.5
Escherichia coli strains = assay: microbe, parasite or virus in culture; format: cell-based; settings: 16 h, read-out: Inhibition Zone Diameter, 166 μg/ml, Pleocidin-resistant, 37° C.
[8] = tested on: gram-negative and gram-positive infections; assay: In vivo protection against infection (general statements); set-up: species or system mice; settings: for in vivo protection / activity: mouse
Text: as §1
The method employed in these studies is the same as described above with regard to the in vivo characterization of 810A.

Vibrio percolans = assay: In vitro disc-plate agar diffusion, antibacterial spectrum (7 mm = no zone); format: cell-based; settings: Comamonas terrigena, 16 h; 166 μg/ml; inoculum 10 ml/150 ml; 27° C.; read-out: Inhibition Zone Diameter
Bacillus sp. = assay: as above; format: cell-based; settings: 16 h, 166 μg/ml, inoculum 5 ml/150 ml, 25° C., read-out: Inhibition Zone Diameter
Xanthomonas vesicatoria = assay: as above; format: cell-based; settings: 16 h, read-out: Inhibition Zone Diameter
Proteus morganii 251 [9] = settings: washed bacterial cells, 4 h, pH 7.5
Salmonella gallinarum = assay: In vitro disc-plate agar diffusion, antibacterial spectrum (7 mm = no zone); format: cell-based; settings: Salmonella enterica, 16 h, 166 μg/ml, inoculum 10 ml/150 ml, 25° C., read-out: Inhibition Zone Diameter
Proteus mirabilis 241 [10] = settings: washed bacterial cells, 4 h, pH 7.5
Bacillus subtilis = assay: In vitro disc-plate agar diffusion, antibacterial spectrum (7 mm = no zone); format: cell-based; settings: 16 h, read-out: Inhibition Zone Diameter
[11] = Blood appearance and urinary excretion; settings: in vivo
Proteus morganii 356 [12] = assay: In vivo mouse protection test, cephalosporin-resistant clinical isolate; set-up: species or system white Swiss mice; settings: s.c. × 2 doses
Text: as §1
In addition to the aforementioned in vivo trials of the product, a clinical isolate of Proteus morganii 356 which is resistant to cephalosporins and capable of degrading cephalosporin C, was employed in a mouse protection test performed in the same manner as reported above.

[13] = tested on: gram-negative and gram-positive bacteria; settings: cited from earlier work
Proteus mirabilis 241 [14] = assay: Bacterial inactivation; settings: four hours; B. subtilis (MB-964); 240 min
[15] = tested on: Alcaligenes faecalis (MB-9); settings: known property of the organism; cited from earlier work
[16] = tested on: Aerobacter cloacae (MB-2646); assay: Bacterial inactivation, cell-free extract; format: biochemical; settings: 2 hour incubation; cell-free extract; assayed on V. percolans (MB-1272) plates
Procedure: The ability of Antibiotic 810A and cephalosporin C to withstand the degradative effect of the culture Aerobacter cloacae (MB-2646) was also determined. This culture is gram-negative and resistant to cephalosporin C. […] The source of the inactivating substance is a 1:160 dilution of the filtrate of an 18 hour 37° C. shake culture of Aerobacter cloacae MB-2646 in nutrient broth containing 0.2% yeast extract. Table XIV, infra, indicates the percent inactivation of Antibotic 810A, cephalothin, cephaloridine and cephalosporin C on Vibrio percolans (MB-1272) via this method:
Using the same assay procedure as described above, Table XV, infra, indicates the relative resistance of Antibiotic 810A to enzymatic inactivation by Aerobacter cloacae. The starting concentration is 250 μg./ml. Results are expressed in μg./ml.

Proteus morganii 251 [17] = assay: Bacterial inactivation; settings: four hours; B. subtilis (MB-964); 240 min
Proteus morganii 356 [18] = assay: Bacterial inactivation; settings: four hours; B. subtilis (MB-964); 240 min
penicillinase = settings: cited from earlier work

CO[C@@]1(NC(=O)CCC[C@@H](N)C(=O)O)C(=O)N2C(C(=O)O)=C(COC(N)=O)CS[C@@H]21 [Example 842A]
ED50 by Subcutaneous Route × Two Doses (Paracolobactrum arizonae): 125 µg
ED50 by Subcutaneous Route × Two Doses (Klebsiella pneumoniae AD): 125 µg
ED50 by Subcutaneous Route × Two Doses (Pasteurella multocida): 57 µg
ED50 by Subcutaneous Route × Two Doses (Proteus morganii 3202): 276 µg
ED50 by Subcutaneous Route × Two Doses (Klebsiella pneumoniae B): 125 µg
ED50 by Subcutaneous Route × Two Doses (Aerobacter aerogenes): 49 µg
ED50 by Subcutaneous Route × Two Doses [1]: 103 µg
ED50 by Subcutaneous Route × Two Doses (Proteus mirabilis): 276 µg
ED50 by Subcutaneous Route × Two Doses [2]: 566 µg
ED50 by Subcutaneous Route × Two Doses (Proteus vulgaris): 51 µg
ED50 by Subcutaneous Route × Two Doses (Salmonella typhosa): 33 µg and 34 µg
ED50 by Subcutaneous Route × Two Doses (Escherichia coli): 200 µg
percent inactivation (Escherichia coli 236): 38%
apparent isoelectric point [3]: ~3.5 pH
pH stability [3]: unstable above pH 9.0; also recorded: relatively stable at pH 1.5; also recorded: unstable above pH 7
antibacterial activity [4]: exhibits activity against Salmonella schottmuelleri 3010, S. gallinarum and S. typhosa; also recorded: inhibits the growth of the following gram-negative bacteria: Escherichia coli, Proteus vulgaris, Alcaligenes faecalis, Brucella bronchiseptica, Salmonella gallinarum, Vibrio percolans and Xanthomonas vesicatoria; also recorded: inhibits the growth of the following gram-positive bacteria: Staphylococcus aureus, Sarcina lutea and Bacillus subtilis
antibacterial activity ([4]; listed as Antibiotic 842A): enhanced activity against gram-negative microorganisms
resistance to cephalosporinases (cephalosporinases): greater resistance to cephalosporinases
inhibition zone (Vibrio percolans MB-1272; 1:10 dilution, Example 10): 21.5 mm.
inhibition zone (Vibrio percolans MB-1272; 4 days, 0.5 inch discs, Example 9): 33 mm.
inhibition zone (Vibrio percolans MB-1272; four days, 0.5 inch discs, Example 8): 31.5 mm.
resistance to enzymatic degradation ([5]; compared with cephalosporin C): more resistant to enzymatic degradation than cephalosporin C
resistance to bacterial inactivation ([5]; compared with other cephalosporins): more stable than the latter against certain microorganisms; also recorded: more resistant than cephalosporin C to inactivation by A. faecalis, A. viscosus, Escherichia coli 236, Proteus morganii 251, Proteus morganii 236 and Proteus mirabilis 241
percent inactivation [6]: 54.4%
percent inactivation (Proteus morganii 356 [7]): 69%
zone of inhibition at 166 µg/mL (Escherichia coli strains): 18 mm
in vivo protection / activity [8]: protects against infection with three species of Proteus, two of Salmonella, one strain of Escherichia coli, two of Klebsiella and also against Paracolobactrum arizonae, Aerobacter aerogenes, Pasteurella multocida and Diplococcus pneumoniae 2400
in vivo protection / activity ([8]; listed as Antibiotic 842A): effectiveness in vivo on Proteus morganii and an effectiveness against the following gram-negative bacteria: Escherichia coli, Proteus vulgaris, Proteus mirabilis, Proteus morganii, Salmonella schottmuelleri, Klebsiella pneumoniae AD, Klebsiella pneumoniae B, and Paracolobactrum arizonae
oral protection against infections ([8]; oral): protects against infections due to Paracolobactrum arizonae 3720, Proteus vulgaris 1810, and Salmonella schottmuelleri 3010
zone of inhibition at 166 µg/mL (Vibrio percolans): 56 mm
zone of inhibition at 166 µg/mL (Bacillus sp.): 8 mm
zone of inhibition at 166 µg/mL (Xanthomonas vesicatoria): 19 mm
percent inactivation (Proteus morganii 251 [9]): 80%
zone of inhibition at 166 µg/mL (Salmonella gallinarum): 21 mm
percent inactivation (Proteus mirabilis 241 [10]): 5%
zone of inhibition at 166 µg/mL (Bacillus subtilis): 13 mm
appearance in the blood [11]: appears rapidly in the blood
ED50 by Subcutaneous Route × 2 Doses (average of Two Trials) (Proteus morganii 356 [12]): 273 µg

CC(=O)OCC1=C(C(=O)O)N2C(=O)[C@@H](NC(=O)CCC[C@@H](N)C(=O)O)[C@H]2SC1 [Cephalosporin C]
percent inactivation (Escherichia coli 236): > 99%
antibacterial activity [13]: only moderately active
antibacterial activity ([13]; listed as cepahlosporin C): relatively low antibacterial activity
percent inactivation (Proteus mirabilis 241 [14]): 72%
percent inactivation [6]: > 99%
inactivation of cephalosporin C [15]: completely inactivate
percent inactivation [16]: 96%
percent inactivation (Proteus morganii 251 [17]): > 99%
percent inactivation (Proteus morganii 356 [18]): > 99%
resistance to penicillinase (penicillinase): inherent resistance to penicillinase

— patent US4017487A, “7β-(D-5-amino-5-carboxyvaleramido )-7-methoxy-3-substituted-3-cephem-4-carboxylic acid antibiotics” (priority 1974, dated 1977)
